Source: patent US20100040617A1, “Method of Using CD100 (or Sema4D) to Mediate Platelet Activation and Inflammatory Responses” (Trustees of the University of Pennsylvania, priority 2004, published 2010)

Tests used:
[1] = tested on: sema4D/CD100; experiment: sema4D/CD100 cleavage in activated platelets (immunoblot with Abm30); type: cell-based, human; details: for cleavage of sema4D/CD100: platelets stimulated with 100 nM PMA at 37° C. for 30 min, 20 μM TAPI-2 preincubated for 60 min (FIG. 4A), EDTA not shown
Text: (§1) FIG. 4 represents the effect of metalloprotease inhibitors on sema4D expression. […] Sema4D was precipitated and blotted with Abm30. Ig light and heavy chains are indicated.
(§2) The observation that sema4D/CD100 cleavage occurs in washed platelets implies that the protease involved is intrinsic to the platelets and not a plasma protein. Platelets are known to contain a number of metalloproteases, including members of the MMP and ADAM families (Sheu, J. R., et al., Br J Pharmacol, 2004. 143(1): p. 193-201. Sawicki, G., et al., Nature, 1997. 386: p. 616-619. Sawicki, G., et al., Thromb. Haemost., 1998. 80: p. 836-839. Colciaghi, F., et al., Mol Med, 2002. 8(2): p. 67-74.).

[2] = tested on: sema4D/CD100; experiment: sema4D/CD100 surface expression on platelets by FACS; type: cell-based, human; details: platelets stimulated with PMA for 15 min or 60 min, FACS (FIG. 4B)
Procedure: as §1
Surface expression of sema4D/CD100 was detected by FACS using an antibody that recognizes the extracellular domain. Expression increased when the platelets were activated with PMA for 15 minutes (FIG. 1C). In contrast, the α-granule membrane protein, P-selectin, was detected only on activated platelets.
as §2

[3] = tested on: human platelets; experiment: ADP-induced platelet aggregation; type: cell-based
Procedure: FIG. 9A represents human platelets that were stimulated with a low concentration of ADP±soluble a soluble chimera of the extracellular domain of sema4D/CD100 fused to IgGκ Fc. FIG. 9B represents an immunoblot of FcCD100 that was performed under reducing and non-reducing conditions using anti-Fc.
Soluble sema4D/CD100 caused an increase in ADP-induced aggregation (FIG. 9). In this experiment, soluble sema4D/CD100 was added as a fusion protein (referred to as FcSema4D or FcCD100) in which the entire extracellular domain of sema4D/CD100 was fused to an IgG Fc domain. The protein forms a disulfide-linked homodimer capable of activating sema4D/CD100 receptors (Ishida, I., et al., Int Immunol, 2003. 15(8): p. 1027-34). FcCD100 had no effect when added on its own (not shown). […] Therefore, it appears that stimulating a receptor for sema4D/CD100 on platelets potentiates platelet responses to ADP. Additional platelet agonists (especially collagen) are going to be explored using platelet accumulation on collagen under flow as an additional endpoint.

[4] = molecular target: T1, recombinant ADAM17 (Homo sapiens, UniProt P78536); experiment: Cleavage of Fc-sema4D by recombinant ADAM17; type: biochemical; details: recombinant ADAM17 lacking the pro domain (FIG. 11)
T1 construct: incubated with recombinant ADAM17 lacking the pro domain
T1 sequence (P78536 215-824): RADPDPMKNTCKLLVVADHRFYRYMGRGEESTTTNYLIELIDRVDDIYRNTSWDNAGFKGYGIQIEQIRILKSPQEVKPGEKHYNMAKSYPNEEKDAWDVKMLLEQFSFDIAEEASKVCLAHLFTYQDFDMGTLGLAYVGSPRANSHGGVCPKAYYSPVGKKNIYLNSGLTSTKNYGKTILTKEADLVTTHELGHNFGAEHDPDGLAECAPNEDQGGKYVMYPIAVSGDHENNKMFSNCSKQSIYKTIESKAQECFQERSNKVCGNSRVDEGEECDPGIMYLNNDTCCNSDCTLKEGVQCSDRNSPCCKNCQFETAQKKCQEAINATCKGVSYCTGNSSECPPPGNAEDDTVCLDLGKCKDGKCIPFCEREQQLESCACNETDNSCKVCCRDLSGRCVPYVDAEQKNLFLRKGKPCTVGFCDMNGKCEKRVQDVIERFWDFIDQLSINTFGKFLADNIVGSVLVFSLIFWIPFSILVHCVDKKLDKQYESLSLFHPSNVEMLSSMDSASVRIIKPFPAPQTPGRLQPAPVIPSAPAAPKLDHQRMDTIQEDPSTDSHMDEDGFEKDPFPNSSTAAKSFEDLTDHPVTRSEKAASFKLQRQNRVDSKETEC
Procedure: FIG. 11 represents the cleavage of sema4D by ADAM17. Recombinant ADAM17 was incubated with Fc-sema4D in which the extracellular domain of human sema4D was joined via a linker to the N-terminus of IgG1 Fc. Two fragments were detected by amido black protein staining (left), the smaller of which (fragment #1) was also detectable with anti-Fc, as was the intact protein (middle). The N-terminal sequence of fragment #1 was determined.
The cleavage site within platelet sema4D/CD100 was determined by using the C-terminal sema4D/CD100 antibody to immunoprecipitate the 25-30 kDa fragment that includes the transmembrane domain and any remaining extracellular domain. […]
In an effort to determine whether sema4D is a direct substrate for ADAM17, a chimeric protein comprised of the extracellular domain of human sema4D fused to the N-terminus of an IgG Fc domain fragment (Ishida et al. 2003. Int Immunol 15:1027-1034) was incubated with recombinant ADAM17 lacking the pro domain (Milla et al. 1999. J Biol Chem 274:30563-30570). […] It has been determined that in platelets, as in lymphocytes, the extracellular domain of sema4D/CD100 is shed as a disulfide-linked dimer.

[5] = tested on: Akt; experiment: Akt phosphorylation (pAkt473 immunoblot) in human platelets; type: cell-based; details: immunoblot for pAkt473, absent in resting platelets (FIG. 7)
Procedure: FIG. 7 represents an immunoblot for pAkt473 from human platelets that were stimulated with recombinant sema4D or thrombin.
Activation of the PI 3-kinase pathway was measured using phosphorylation of Akt as a surrogate. Akt phosphorylation normally occurs in platelets activated by collagen and other agonists. Akt phosphorylation was also recently shown to occur in endothelial cells stimulated with soluble sema4D/CD100 (Basile, et al. Mol Cell Biol. […]: 6889, 2005). In endothelial cells responses to sema4D/CD100 appear to be mediated by plexin-B1. In FIG. 7, human platelets were stimulated with a His-tagged protein corresponding to the human sema4D/CD100 exodomain. Platelet lysates were prepared and immunoblotted with an antibody specific for pAkt473. Thrombin was used as a positive control.

[6] = tested on: sema4D/CD100; experiment: Rate of sema4D/CD100 cleavage in stirred, PMA-activated platelets; type: cell-based, human; details: fibrinogen binding and aggregation inhibited by the peptide (not shown)
Procedure: Washed platelets were stimulated with 100 nM PMA in an aggregometer cuvette at 37° C. with or without stirring. Lysates were precipitated and blotted with antibody Abm30. The extent of platelet aggregation in the stirred samples is indicated below each lane.
To address the issue of whether the rate of sema4D/CD100 cleavage is different when aggregation is allowed to occur than when activation occurs in the absence of aggregation, platelets were activated with or without the stirring needed for platelet aggregates to form. PMA caused a time-dependent loss of intact sema4D/CD100 and the appearance of the C-terminal sema4D/CD100 fragment. The rate of cleavage was accelerated when aggregation was allowed to occur (FIG. 3). Even at its fastest, however, cleavage lagged behind aggregation.
Platelet aggregation study also included the use of washed platelets were stimulated with 100 nM PMA in an aggregometer cuvette at 37° C. with or without stirring. Lysates were precipitated and blotted with antibody Abm30.

[7] = tested on: monocytes; details: cited from earlier work

## CC(C)C[C@H](CC(=O)NO)C(=O)N[C@H](C(=O)N[C@@H](C)C(=O)NCCN)C(C)(C)C [TAPI-2]
[1]; platelets activated by thrombin or SFLLRN (not shown)
  sema4D/CD100 cleavage: abolished
[1]
  cleavage of sema4D/CD100: inhibited
[2]
  loss of sema4D/CD100 surface expression: prevented the loss of surface expression

## FcCD100: fusion protein in which the entire extracellular domain of sema4D/CD100 was fused to an IgG Fc domain; disulfide-linked homodimer
[3]; low concentration of ADP (FIG. 9)
  platelet aggregation in the presence of ADP: caused an increase in platelet aggregation
[3]; no ADP (not shown)
  platelet aggregation, added on its own: no effect
[4]
  cleavage by recombinant ADAM17: Cleavage produced two identifiable fragments

## CNC(=O)[C@H](Cc1c[nH]c2ccccc12)NC(=O)[C@@H](CC(=O)NO)CC(C)C [GM6001]
[1]
  cleavage of sema4D/CD100: inhibited

## thrombin
[5]
  pAkt in platelet lysates: readily detectable

## RGDS
[6]
  rate of sema4D/CD100 cleavage: the rate of cleavage became more like that seen when the platelets were activated without stirring

## O=C(O)CN(CCN(CC(=O)O)CC(=O)O)CC(=O)O [EDTA]
[1]
  cleavage of sema4D/CD100: inhibited

## soluble sema4D/CD100: in FIG. 7 a His-tagged protein corresponding to the human sema4D/CD100 exodomain
[5]
  pAkt in platelet lysates: readily detectable
[7]
  half-maximal effects on monocytes: 5 to 10 ng/mL
  maximal effects on monocytes: 40 to 50 ng/mL
